In PubChem BioAssay (NCI):
Several values for one entry are separate records, joined by “and”; a condition that tells them apart may be missing. Identical values can stand only once.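 Where inhibition never reached the appropriate level, the endpoint shown equals the highest concentration tested. Otherwise, values were interpolated linearly from a five-concentration, 48-hour dose response in 96-well plates. GI50 is the concentration that inhibits growth by half. TGI: total growth inhibition.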

Experiments:
Assay in all cases: growth of human tumour cells (NCI), 48 h
[1] = tested on: RPMI-8226 leukemia
[2] = tested on: NCI-H226 lung
[3] = tested on: UACC-62 melanoma
[4] = tested on: SNB-75 CNS
[5] = tested on: OVCAR-3 ovarian
[6] = tested on: HOP-92 NSCLC
[7] = tested on: OVCAR-4 ovarian
[8] = tested on: SF-539 CNS
[9] = tested on: M14 melanoma
[10] = tested on: A549 NSCLC

Structure (SMILES)	TGI [1]	TGI [2]	TGI [3]	TGI [4]	TGI [5]	TGI [6]	TGI [7]	TGI [8]	TGI [9]	TGI [10]	GI50 [1]	GI50 [2]	GI50 [3]	GI50 [4]	GI50 [5]	GI50 [6]	GI50 [7]	GI50 [8]	GI50 [9]	GI50 [10]
C=C(CCCCCCCCC)CC(=O)SCCNC(=O)CCNC(=O)C(O)C(C)(C)COP(=O)(O)OP(=O)(O)OCC1OC(n2cnc3c(N)ncnc32)C(O)C1OP(=O)(O)O (configuration not stated)	62.7 µM	> 100 µM	46.1 µM	58.8 µM	> 100 µM	> 100 µM	> 100 µM	> 85.6 µM	65 µM	> 100 µM	–	–	–	–	–	–	–	–	–	–
O=C(/C=C/C12c3ccccc3C(c3ccccc31)C1C(=O)N(c3ccccc3)C(=O)C12)c1ccccc1 (configuration not stated)	7.69 µM	8.63 µM	4.94 µM	> 100 µM	7.09 µM	3.75 µM	> 100 µM	5.14 µM	10.1 µM	> 100 µM	1.55 µM	2.34 µM	1.66 µM	2.39 µM	2.22 µM	1.26 µM	2.94 µM	2.09 µM	2.51 µM	2.58 µM
COc1ccccc1/C=C1\CCC(CCN(C)C)(C2=CCCC2)C1=O (configuration not stated)	41.3 µM	40.5 µM	23.5 µM	54.7 µM	40.6 µM	46.6 µM	35.2 µM	29.5 µM	31.3 µM	64.4 µM	–	–	–	–	–	–	–	–	–	–
CCO/C=C/C(C)C1(C(=O)OCC)CCCCC1=O (configuration not stated)	> 100 µM	> 100 µM	> 100 µM	> 100 µM	> 100 µM	> 100 µM	> 100 µM	> 100 µM	> 100 µM	> 100 µM	–	–	–	–	–	–	–	–	–	–
CCC(=O)O[C@H]1CC[C@H]2[C@@H]3CC[C@H]4CC(=O)[C@H](C)C[C@]4(C)[C@H]3CC[C@]12C	13 µM	> 100 µM	> 100 µM	> 100 µM	> 84.1 µM	63 µM	> 100 µM	> 100 µM	> 100 µM	> 57.5 µM	2.52 µM	> 96.2 µM	13.9 µM	> 100 µM	31.2 µM	–	> 79.1 µM	> 83.5 µM	48.1 µM	19.5 µM
Oc1ccc(C(c2ccc(O)cc2)c2ccc(Cl)cn2)cc1	> 84.8 µM	> 45.8 µM	17.8 µM	0.451 µM	0.0769 µM	0.947 µM	0.0598 µM	> 100 µM	> 100 µM	> 100 µM	21.1 µM	1.93 µM	1.59 µM	0.17 µM	0.0266 µM	0.266 µM	0.0243 µM	13.7 µM	21.3 µM	1.21 µM
O=Cc1ccccc1OCCOc1cc(OCCOc2ccccc2C=O)c(OCCOc2ccccc2C=O)cc1OCCOc1ccccc1C=O	> 100 µM	> 100 µM	> 100 µM	23.9 µM	> 100 µM	> 79.8 µM	> 100 µM	> 79 µM	> 100 µM	> 100 µM	–	–	–	–	–	–	–	–	–	–
CCCC(=O)Nc1cc(C(=O)N2C[C@@H]3C[C@]34C2=CC(=O)c2[nH]cc(C)c24)n(COC)c1	37.3 µM and 8.36 µM	42.1 µM	13.5 µM and 8.75 µM	17.7 µM and 12.3 µM	24.4 µM and 5.09 µM	11.2 µM and 7.85 µM	20.3 µM and 19.9 µM	31.1 µM and 5.28 µM	50 µM and 5.96 µM	40.7 µM and 47.9 µM	2.57 µM	–	2.84 µM	2.99 µM	2.58 µM	3.22 µM	–	2.15 µM	2.05 µM	16.6 µM
